Literature values in article PMC4956526 (Bioconjugate chemistry, 2016).

Details: ref 40 (Lau et al.)

| subcutaneous bioavailability | Substance |
| --- | --- |
| 66% | liraglutide |
| 94% | semaglutide |
